What was measured:
[1] = tested on: K562 chronic myeloid leukemia cells; assay: Apoptosis detection with fluorogenic caspase substrate Caspalux6-J1D2 in bulk and in drops; assay type: cell-based; settings: K562 cells treated with Imatinib for 24 hours; both bulk and drop experiment (FIG. 7)
Experimental: Single K562 chronic myeloid leukemia cells were introduced to the drug combinations by picoinjecting a cell suspension to the merged drops at a concentration known to obtain a Poisson distribution with rate λ (lambda)=0.1, and incubated at 37° C. for 24 hours.
By adding a fluorogenic substrate, caspalux6-J1D2, which is specifically cleaved by increased caspase 3 and caspase 3-like activities during apoptosis, apoptosis of cells in drops can be determined.

Leukemia K562 cells = assay: Apoptosis and necrosis by Annexin V / propidium iodide staining of cells in agarose gel particles; assay type: cell-based; settings: 48 hr incubation, drops containing 20 micrograms/mL Imatinib mixed at a 1:1 ratio (10 micrograms/mL per FIG. 12), PI and Annexin V staining
Experimental: In this example, first cells are mixed with molten low melt agarose at 37° C. and together incorporated into droplets. […] An UltraPure low melting point agarose is used in this experiment, which melts at 65.5° C., remains fluid at 37° C. and becomes solid rapidly at temperatures below 25° C. […] In this example, agarose powder was dissolved into PBS and autoclaved to prepare a sterilized 2% (w/v) agarose solution. Cells were counted and suspend in a DMEM culture media with 40% fetal bovine serum, and the cell suspension was mixed with agarose solution at 1:1 volume ratio. The mixture of cells and agarose gel was flowed into the sample inlet of a microfluidic drop-making device, and HFE7500 oil with 2% surfactant was flowed into the oil inlet to cause the cell-containing agarose gel to produce 80 micrometer drops. The generated gel-in-oil drops were collected into a pre-cooled eppendorf tube in an ice bath.
The drops containing agarose gel particles were collected into a pre-cooled eppendorf tube, after which the injected cell-containing agarose gel remained spherical. In the following steps, the agarose gel particles were injected into the drop containing drug combination and drug barcodes, followed by incubation, destabilization, staining, washing and FACS to obtain the gel particles containing positive cells. […]

Cc1ccc(NC(=O)c2ccc(CN3CCN(C)CC3)cc2)cc1Nc1nccc(-c2cccnc2)n1 [Imatinib]
apoptotic signal (Caspalux6-J1D2 fluorescence) [1]: clear apoptotic signal | apoptotic and necrotic cells (Leukemia K562 cells): About 70%

Source: patent US20170029813A1, “METHODS AND SYSTEMS FOR DROPLET TAGGING AND AMPLIFICATION” (President and Fellows of Harvard College, priority 2014, published 2017)
